Key:
[1] = test system: nitrification (soil Limburgerhof, microbial biomass); assay: Inhibition of nitrification in soil incubation (NH4-N recovery and NO3-N formation); conditions: 14 days after treatment, 20° C.
Procedure: The soil is incubated at 20° C. for two weeks prior to the experiments to activate the microbial biomass. 1 ml test solution, containing the compounds of formula I in the appropriate concentration (usually 0.3 or 1% (w/w) of fertilized NH4—N), and 10 mg nitrogen in the form of ammoniumsulfate-N(NH4—N) is added to the soil and everything mixed well. Unfertilized controls received 1 ml pure water. Bottles are capped but loosely to allow air exchange. The bottles are then incubated at 20° C. for 0 and 14 days. For analysis, 300 ml of a 1% K2SO4-solution is added to the bottle containing the soil and shaken for 2 hours in a horizontal shaker at 150 rpm. Then the whole solution is filtered through a filter (Macherey-Nagel Filter MN 807%). Ammonium and nitrate content is then analyzed in the filtrate using an autoanalyzer. Ammonium was quantified via an indophenol blue dye at 660 nm, and nitrate via an azo dye at 540 nm. The nitrification inhibition is expressed as % of NH4—N recovery from fertilized NH4—N (100%) after subtraction of unfertilized control soil, and as % inhibition of NO3—N formation (% reduction of NO3^− production) according to the formula: [formula]

[2] = test system: nitrification (soil Limburgerhof, microbial biomass); assay: Comparison of % NH4-N recovery in soil incubation, data pooled from different trials; conditions: average pooled from different trials
Procedure: Examples 2 and 3 were further tested with regard to Comparative Example 1 in terms of the % NH4—N recovery. 100 g Soil (soil Limburgerhof with pH(CaCl2) 6.8; 73% sand, 23% silt, 4% clay, which is classified according to FAO as a sandy loam) is filled into 500 ml plastic bottles and is moistened to 50% water holding capacity. The soil is incubated at 20° C. for two weeks prior to the experiments to activate the microbial biomass. 1 ml Test solution, containing the compounds of formula I or the comparative example in the appropriate concentration (0.3 or 1% (w/w) of fertilized NH4—N), and 10 mg nitrogen in the form of ammoniumsulfate-N(NH4—N) is added to the soil and everything mixed well. Unfertilized controls received 1 ml pure water. Bottles are capped but loosely to allow air exchange. The bottles are then incubated at 20° C. for 14 days. For analysis, 300 ml of a 1% K2SO4-solution is added to the bottle containing the soil and shaken for 2 hours in a horizontal shaker at 150 rpm. Then the whole solution is filtered through a filter (Macherey-Nagel Filter MN 807%). Ammonium content is then analyzed in the filtrate using an autoanalyzer. Ammonium was quantified via an indophenol blue dye at 660 nm. The nitrification inhibition is expressed as % of NH4—N recovery from fertilized NH4—N (100%) after subtraction of unfertilized control soil. For comparison of the % NH4—N recovery of the compounds of the invention, i.e. Examples 2 and 3, with comparative example 1 as shown below from different trials, the standard deviation of a common treatment of all trials with DMPP (3,4-dimethylpyrazole phosphate) was calculated. Based on this calculation the data from different trials can be pooled together to calculate an average % NH4—N recovery for the compounds of the invention and the comparative compound as shown below.

[3] = Stability (recovery experiment) of nitrification inhibitor on treated fertilizer granules; type: physicochemical; conditions: dose NI 1 % NH4N; for NI on fertilizer granules [%] after storage 4 weeks 20° C.: open beaker, 50% rH; for NI on fertilizer granules [%] initial: sample stored at -18° C.
Procedure: Examples 2 and 3 were further tested with regard to Comparative Example 1 in terms of their stability (recovery experiment)
Ammonium Sulphate Nitrate (ASN) fertilizer granules and Diammonium phosphate (DAP) fertilizer granules were treated with liquid preparations of the Nitrification Inhibitor (NI) of example 2 and 3 and Comparative Example 1.
For the recovery experiment, a small amount (˜10g) of each treated fertilizer sample was filled into a closed glass vial and stored at −18° C. Another 250 g of each treated fertilizer sample were filled into an open glass beaker and stored at 20° C. and 50% relative humidity (rH). After four weeks of storage, 50g of the samples stored at 20° C. and 50% rH were drawn from the bottom and analyzed by HPCL for NI content in comparison to the −18° C. sample. The recovery is given in % as ratio of the NI content of the 20° C. sample divided by the NI content of the −18° C. sample.

[4] = Volatility of prior-art nitrification inhibitor; type: physicochemical; conditions: statement in words on the prior-art compound
Excerpt: Sharma et al. (J P Sharma, H K Taneja, S S Tomar Pesticide Research Journal, 2006, 18(1), 7-11) inter alia discloses 3-ethoxy-5-methylpyrazole as nitrification inhibitor.

[5] = applied dose 0.3 wt.-% relative to NH4-N
[6] = applied dose 1.0 wt.-% relative to NH4-N

Compound | NI on fertilizer granules [%] after storage 4 weeks 20° C. ([3]; DAP fertilizer granules) [%] | NI on fertilizer granules [%] initial ([3]; DAP fertilizer granules) [%] | volatility [4] | NI on fertilizer granules [%] after storage 4 weeks 20° C. ([3]; ASN fertilizer granules) [%] | NI on fertilizer granules [%] initial ([3]; ASN fertilizer granules) [%] | average inhibition % of NO3 DAT14 (n = 4) [1, 5] [%] | average recovery % NH4-N DAT14 (n = 4) [1, 5] [%] | average inhibition % of NO3 DAT14 (n = 4) [1, 6] [%] | average recovery % NH4-N DAT14 (n = 4) [1, 6] [%] | % NH4-N recovery after 14 days ([2]; 0.3 wt.-% relative to NH4-N) [%] | % NH4-N recovery after 14 days ([2]; 1 wt.-% relative to NH4-N) [%]
CCCCCCCOC(=O)n1nc(OC)cc1C [Example 2] | 0.015 | 0.023 | – | – | – | 60 | 55 | 89 | 66 | 47 | 58
COc1cc(C)n(C(=O)c2cccc(F)c2)n1 [Example 5] | – | – | – | – | – | 20 | 25 | 50 | 39 | – | –
CCCCCCCOC(=O)n1nc(C)cc1OC [Example 1] | – | – | – | – | – | 44 | 40 | 82 | 68 | – | –
COc1cc(C)n(C(=O)C2CCOCC2)n1 [Example 4] | – | – | – | – | – | 33 | 40 | 82 | 66 | – | –

More lines, main results first:

NI on fertilizer granules [%] after storage 4 weeks 20° C. ([3]; DAP fertilizer granules) [%] | NI on fertilizer granules [%] initial ([3]; DAP fertilizer granules) [%] | volatility [4] | NI on fertilizer granules [%] after storage 4 weeks 20° C. ([3]; ASN fertilizer granules) [%] | NI on fertilizer granules [%] initial ([3]; ASN fertilizer granules) [%] | Compound | average inhibition % of NO3 DAT14 (n = 4) [1, 5] [%] | average recovery % NH4-N DAT14 (n = 4) [1, 5] [%] | average inhibition % of NO3 DAT14 (n = 4) [1, 6] [%] | average recovery % NH4-N DAT14 (n = 4) [1, 6] [%] | % NH4-N recovery after 14 days ([2]; 0.3 wt.-% relative to NH4-N) [%] | % NH4-N recovery after 14 days ([2]; 1 wt.-% relative to NH4-N) [%]
– | – | high volatility | – | – | CCOc1cc(C)[nH]n1 [3-ethoxy-5-methylpyrazole] | – | – | – | – | – | –
0.044 | 0.052 | – | 0.113 | 0.116 | CCOC(=O)CC(=O)n1nc(OC)cc1C [Example 3] | 60 | 49 | 90 | 71 | 41 | 64
0.057 | 0.110 | – | 0.000 | 0.034 | CCOc1cc(C)nn1CO [Comparative Example 1, reference compound] | – | – | – | – | 36 | 46

Source: patent US20240270658A1, “Use of an N-Functionalized Alkoxy Pyrazole Compound as Nitrification Inhibitor” (BASF SE, priority 2021, published 2024)
